In PMC10812467, “Peroxidasin Inhibition by Phloroglucinol and Other Peroxidase Inhibitors” (Antioxidants, 2023):
Where two headings read alike, the source gives them in different places.

Key:
[1] = system: collagen IV NCD sulfilimine cross-link formation of PFHR9 cells; test: Inhibition of collagen IV cross-linking in cell culture; format: cell-based; conditions: PFHR9 cells grown with inhibitor for 7 days, Western blot densitometry, n.a. = 50% inhibition not reached
Method: (§1) PFHR9 cells (ATCC) were grown in Dulbecco’s Modified Eagle Medium (Gibco), supplemented with 10% heat-inactivated foetal bovine serum (Moregate) and 1% Penicillin Streptomycin (Gibco). As described previously, cells were seeded in 150 mm cell culture dishes and ECM was isolated. The concentration of the isolated ECM protein was measured (Direct Detect) and the yield was typically ~5 mg per dish. […] After 10 min, 100 μM bromide was added and the cross-link formation was started by adding 100 μM hydrogen peroxide. After 1 h at 37 °C, the reaction was stopped, by adding 1 mM sodium azide, and ECM was digested with 2 mg mL^−1 of collagenase type I (Worthington) for 48 h at 37 °C. The digest was spun (20 kg, RT, 20 min) and the extent of cross-linking of the NCD of collagen IV was determined by the resolution of the supernatant protein on a 12% sodium dodecyl-sulfate polyacrylamide gel electrophoresis (SDS-PAGE). […] Densitometric analyses of both dimer bands (Alliance Uvitec Cambridge imager) were used to determine the extent of inhibition of the cross-link formation. […] Once full confluence was reached, the medium was changed daily, and inhibitors were added at the indicated concentrations in 1 mL of medium for 7 days.

Human peroxidasin (PXDN) [2] = biological target: T1, Human peroxidasin (PXDN) (Homo sapiens, UniProt Q92626); test: Reversibility of inactivation of immobilized PXDN (wash, then Amplex assay); format: biochemical; conditions: 10 min, washed four times; for Irreversible Inhibition: 20 μM inhibitor, then Amplex assay
T1 construct: the four immunoglobulin domains and the peroxidase domain (amino acid residue 246-1314); made in house; host or cells: transient transfection
T1 sequence (Q92626 246-1314): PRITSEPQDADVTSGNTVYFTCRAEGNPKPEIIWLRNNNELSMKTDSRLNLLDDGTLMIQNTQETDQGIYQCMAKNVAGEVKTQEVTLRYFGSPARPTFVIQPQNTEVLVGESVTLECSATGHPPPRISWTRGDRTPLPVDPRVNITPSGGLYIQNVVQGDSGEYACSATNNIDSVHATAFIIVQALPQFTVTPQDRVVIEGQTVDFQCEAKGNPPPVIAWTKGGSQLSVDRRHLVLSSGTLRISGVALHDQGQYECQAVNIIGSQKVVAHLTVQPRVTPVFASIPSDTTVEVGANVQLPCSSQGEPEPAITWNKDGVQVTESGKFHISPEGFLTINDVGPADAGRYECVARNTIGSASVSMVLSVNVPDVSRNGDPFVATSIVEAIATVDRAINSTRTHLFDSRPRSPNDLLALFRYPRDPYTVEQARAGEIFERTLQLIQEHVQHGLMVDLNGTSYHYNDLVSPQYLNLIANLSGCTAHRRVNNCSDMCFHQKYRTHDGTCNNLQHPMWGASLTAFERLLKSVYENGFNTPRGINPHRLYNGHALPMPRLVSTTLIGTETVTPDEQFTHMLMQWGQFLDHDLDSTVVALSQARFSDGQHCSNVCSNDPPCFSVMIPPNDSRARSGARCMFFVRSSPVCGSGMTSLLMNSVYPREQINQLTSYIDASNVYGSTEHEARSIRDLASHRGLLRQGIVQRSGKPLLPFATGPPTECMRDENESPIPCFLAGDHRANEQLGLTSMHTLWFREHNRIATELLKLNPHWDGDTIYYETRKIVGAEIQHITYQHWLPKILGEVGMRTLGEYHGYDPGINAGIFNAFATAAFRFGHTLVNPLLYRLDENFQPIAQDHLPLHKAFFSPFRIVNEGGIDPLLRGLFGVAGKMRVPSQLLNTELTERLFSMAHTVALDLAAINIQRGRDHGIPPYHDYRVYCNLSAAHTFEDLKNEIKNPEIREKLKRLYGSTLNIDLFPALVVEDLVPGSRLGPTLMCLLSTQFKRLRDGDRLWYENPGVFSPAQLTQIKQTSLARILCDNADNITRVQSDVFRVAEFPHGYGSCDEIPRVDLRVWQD
Method: 200 ng of PXDN in 50 μL PBS was added per well of a Corning high-binding ELISA microplate for 2 h at room temperature. After four PBS washes, the respective inhibitors were added at a final concentration of 20 μM in phosphate buffer pH 7.4, before 10 μM of hydrogen peroxide was added in a final volume of 50 μL. In a control experiment, no hydrogen peroxide was added. After 10 min of incubation, the plates were washed four times with PBS and activity was measured as previously described, by adding 50 μL/well of 50 μM Amplex™ UltraRed Reagent, 20 μM hydrogen peroxide and 50 mM bromide in 50 mM phosphate buffer pH 7.4. The plate was incubated for 30 min in the dark at 37 °C before fluorescence was measured (λex 544 nm, λem 590 nm) and expressed as % activity of the untreated control.

[3] = system: collagen IV NCD sulfilimine cross-link formation in isolated ECM from PFHR9 cells; test: Inhibition of collagen IV cross-linking in decellularized extracellular matrix; format: biochemical
Method: as §1

PXDN Compound I = biological target: T2, PXDN Compound I (Homo sapiens, UniProt Q92626); test: Sequential stopped-flow spectroscopy of PXDN Compound I with inhibitors; format: biochemical; conditions: 1 μM PXDN Compound I, pH 7.4, 25 °C
T2 construct: the four immunoglobulin domains and the peroxidase domain (amino acid residue 246-1314); made in house; host or cells: transient transfection
T2 sequence (Q92626 246-1314): T1 sequence (Q92626 246-1314)
Method: Pre-steady-state spectra were recorded with the stopped-flow apparatus SX.18MV (Applied Photophysics Ltd, Leatherhead, UK) connected to a diode array detector (DAD), with the first spectrum recorded 14 ms after the mixing of the reactants. Due to the inherent instability of Compound I of PXDN, the sequential mixing mode was used to generate Compound I. Equal volumes of 4 μM PXDN and 4 μM hydrogen peroxide were mixed in the aging loop. […] Interconversion of redox intermediates of PXDN was monitored for 60 s. […] All reactions were performed in 100 mM phosphate buffer, pH 7.4, and at 25 °C. Time traces (410 nm to monitor Compound I and ferric PXDN, 432 nm for Compound II and 550 and 590 nm to monitor Compound III [46]) were extracted from the time-resolved spectra.

Human peroxidasin (PXDN) [4] = biological target: T1, Human peroxidasin (PXDN); test: Amplex oxidation activity assay in the presence of bromide; format: biochemical
Method: (§2) A previously characterized truncated peroxidasin variant, formerly annotated as hsPxd01-con4 [46], consisting of the four immunoglobulin domains and the peroxidase domain (amino acid residue 246-1314; numbering refers to full length PXDN including the signal peptide as shown in Uniprot Q92626), was used for all experiments using PXDN protein. Cloning, transient transfection, expression and the quality control of the purified recombinant PXDN was performed routinely, as described previously. Molar concentrations are per heme and were determined using an extinction coefficient of 147,500 M^−1 cm^−1 for the heme Soret peak at 412 nm. For the conversion to mg, a molar mass of 140,000 g mol^−1 was used and calculated from the molar concentration per heme. For simplicity we will refer to this variant as peroxidasin (PXDN) throughout the manuscript.
(§3) 100 µL of 50 μM Amplex™ UltraRed and 20 μM hydrogen peroxide in 50 mM phosphate buffer pH 7.4 and the respective inhibitor at twice of its final concentration was added to a 96-well plate. […] The plate was incubated in the dark for 15 min at 37 °C before the fluorescence of resorufin, the resulting Amplex oxidation product, was detected using a SpectraMax iD3 fluorescent plate reader from Molecular Devices LLC, San Jose, CA 95134 (λex 544 nm, λem 590 nm, end point measurement). The same assay was also performed with 50 mM bromide present. To determine IC50 values, Amplex oxidation (measured as the end point as described above) was plotted versus the concentration of the inhibitor and expressed as % inhibition.

Human peroxidasin (PXDN) [5] = biological target: T1, Human peroxidasin (PXDN); test: Amplex oxidation activity assay in the absence of bromide; format: biochemical
Method: as §2, §3

[6] = system: collagen IV cross-link formation by PXDN; design: method as in PMID 22842973; conditions: cited from earlier work
Human peroxidasin (PXDN) [7] = biological target: T1, Human peroxidasin (PXDN); test: Dansylglycine halogenation (bromination) activity assay; format: biochemical; conditions: 50 nM PXDN, 100 mM bromide; for inhibition at 24 µM: 24 μM inhibitor, 50 μM DG, 200 μM hydrogen peroxide, pH 7.4
Method: as §2
Dansylglycine (DG) was made up fresh every day and kept in the dark at room temperature. […] We mixed 50 nM PXDN in 100 mM phosphate buffer pH 7.4 with 50 μM DG and 100 mM bromide, before the reaction was started by adding 200 μM of hydrogen peroxide to a final volume of 1.5 mL. Loss of fluorescence was monitored for 60 s using a F-7000 Hitachi (Methrom-Inula, Vienna) fluorometer (λex 340 nm, λem 550 nm). […] The loss of fluorescence was fitted linearly to determine the rate of reaction (min^−1). The effect of the inhibitors was expressed as % inhibition, relative to the rate of the halogenation activity of PXDN without an inhibitor. IC50 values were determined by varying inhibitor concentrations (0–48 μM).

MPO = conditions: literature statement; cited from earlier work
LPO = system: LPO; design: method as in PMID 8068644; conditions: cited from earlier work
TPO = system: TPO; design: method as in PMID 8068644; conditions: cited from earlier work
PFHR9 cells = test: Tolerability / toxicity in cell culture; format: cell-based
Method: as §1, with “°C.” for “°C. The digest was spun (20 kg, RT, 20 min) and the extent of cross-linking of the NCD of collagen IV was determined by the resolution of the supernatant protein on a 12% sodium dodecyl-sulfate polyacrylamide gel electrophoresis (SDS-PAGE).”

[8] = 100 μM bromide, 100 μM hydrogen peroxide, 1 h 37 °C, Western blot densitometry, read-out: IC50 DECM

NNC(=O)CNc1ccccc1F [F-PAAH, 2-[(2-fluorophenyl)amino]-acetohydrazide]
IC50 Cells [1]: ineffective | Irreversible Inhibition (Human peroxidasin (PXDN) [2]): no | inhibition of PXDN remaining after washing (Human peroxidasin (PXDN) [2]; immobilized PXDN, 20 μM inhibitor without or with 10 μM hydrogen peroxide): no statistically significant difference | IC50 [3, 8]: 155000 nM | Mechanism or Reaction Steady and Pre-Steady State Spectrophotometry (PXDN Compound I): forms Compound III | IC50 (Human peroxidasin (PXDN) [4]): 900 nM | inhibition at 20 µM (Human peroxidasin (PXDN) [4]; 20 μM inhibitor, 50 mM bromide): 90% | IC50 (Human peroxidasin (PXDN) [5]): 2400 nM

NNC(=O)CNc1ccc(Cl)cc1 [Cl-PAAH, (2-[(4-chlorophenyl)amino]-acetohydrazide)]
IC50 ([1]; 168 h): ~172000 nM | IC50 [3, 8]: 12700 nM

O=C(O)CNc1ccc(Cl)cc1 [Cl-PAAA, (2-[(4-chlorophenyl)amino]-acetic acid)]
IC50 Cells [1]: toxic | IC50 [3, 8]: 3700 nM

COc1ccc2c(C)nc(N=C(N)N)nc2c1 [Quinazoline, 2-(7-methoxy-4-methylquinazoline-2-yl)guanidine]
Mechanism or Reaction Steady and Pre-Steady State Spectrophotometry (PXDN Compound I): Good substrate for CI and CII | inhibition at 20 µM (Human peroxidasin (PXDN) [4]; 20 μM inhibitor, 50 mM bromide): 25 to 70% | IC50 (Human peroxidasin (PXDN) [5]): 200 nM

Cn1cc[nH]c1=S [methimazole]
inhibition of collagen IV cross-link formation by PXDN [6]: potently inhibits

CSc1ccc2c(c1)N(CCC1CCCCN1C)c1ccccc1S2 (stereo not shown) [Thioridazine]
inhibition at 24 µM (Human peroxidasin (PXDN) [7]): 97 to 99% | IC50 (Human peroxidasin (PXDN) [7]; inhibitor 0–48 μM, read-out: IC50 Halogenation Dansylglycin): 1800 nM | Mechanism or Reaction Steady and Pre-Steady State Spectrophotometry (PXDN Compound I): Good substrate for CI, not a substrate for CII | inhibition of Amplex oxidation in the presence of bromide (Human peroxidasin (PXDN) [4]; 20 μM inhibitor, 50 mM bromide): neither activation of Amplex oxidation, nor much inhibition | enhancement of Amplex oxidation (Human peroxidasin (PXDN) [5]; 20 μM compound, without bromide): about 50%

Oc1cc(O)cc(O)c1 [Phloroglucinol, 1,3,5-Trihydroxybenzene]
inhibition of MPO (MPO): not to be inhibited | inhibition at 24 µM (Human peroxidasin (PXDN) [7]): 97 to 99% | inhibition of LPO (LPO): potently inhibits | Irreversible Inhibition (Human peroxidasin (PXDN) [2]): yes | inhibition at 20 µM (Human peroxidasin (PXDN) [2]; immobilized PXDN, 20 μM inhibitor without or with 10 μM hydrogen peroxide, read-out: inhibition of PXDN remaining after washing): > 95% | IC50 [3, 8]: 950 nM | IC50 ([3]; read-out: IC50 inhibition of collagen IV cross-link formation in ECM model): ~950 nM | Mechanism or Reaction Steady and Pre-Steady State Spectrophotometry (PXDN Compound I): Adduct formation or tight ligand binding | IC50 ([6]; read-out: IC50 inhibition of collagen IV cross-linking, previously published value): 500 nM | inhibition of TPO (TPO): potently inhibits | IC50 (Human peroxidasin (PXDN) [4]): 948 nM | inhibition at 20 µM (Human peroxidasin (PXDN) [4]; 20 μM inhibitor, 50 mM bromide): > 95% | tolerability in cell culture (PFHR9 cells): well tolerated in cell culture and does not impact cell proliferation | IC50 (Human peroxidasin (PXDN) [5]): 137 nM | inhibition at 20 µM (Human peroxidasin (PXDN) [5]; 20 μM inhibitor, without bromide): > 95%

NCCc1ccc(O)c(O)c1 [Dopamine]
Mechanism or Reaction Steady and Pre-Steady State Spectrophotometry (PXDN Compound I): Good substrate for CI and CII | inhibition at 20 µM (Human peroxidasin (PXDN) [4]; 20 μM inhibitor, 50 mM bromide): 25 to 70% | IC50 (Human peroxidasin (PXDN) [5]): 10 nM

(E)-2-methoxy-4-((2-phtalazine-1yl)hydrazono)methyl)phenol [Hydralazine-vanillin]
Mechanism or Reaction Steady and Pre-Steady State Spectrophotometry (PXDN Compound I): good peroxidation substrates
